Reference: PubChem BioAssay AID220 (DTP/NCI, 2004)
Several values for one entry are separate records, joined by “and”; a condition that tells them apart may be missing. Equal values may be shown once. Results filed as inconclusive are left out.

Tested on: CD8F1 mice, subcutaneous mammary adenocarcinoma, T/C%
Test: NCI In Vivo Anticancer Drug Screen. Data for tumor model Mammary Adenocarcinoma CD8F1 (subcutaneous) in CD8F1
Details: higher = larger tumour
Procedure, shortened: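 Transplantable tumors were established in mice, animals were dosed with compound or vehicle, and survival or tumor size was then measured in both groups. The treated result was divided by the control result.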

[1] = endpoint: median tumor weight (est.), dose: 0.62 mg/kg/injection, schedule: Q07DX005 (ip), vehicle: saline
[2] = endpoint: median tumor weight (est.), dose: 1.25 mg/kg/injection, schedule: Q07DX005 (ip), vehicle: saline
[3] = endpoint: median tumor weight (est.), dose: 2.5 mg/kg/injection, schedule: Q07DX005 (ip), vehicle: saline

`COCC(O)Cn1ccnc1[N+](=O)[O-]` (stereo unspecified) was tested, and the T/C (endpoint: median tumor weight (est.), dose: 8.0 mg/kg/injection, schedule: Q07DX005 (ip), vehicle: Klucel (hydroxypropylcellulose) (HPC)) was 101 % of control, the T/C (endpoint: median tumor weight (est.), dose: 8.0 mg/kg/injection, schedule: Q07DX005 (ip), vehicle: saline) was 183 % of control and the T/C (endpoint: median tumor weight (est.), dose: 16.0 mg/kg/injection, schedule: Q07DX005 (ip), vehicle: Klucel (hydroxypropylcellulose) (HPC)) was 124 % of control. The T/C (endpoint: median tumor weight (est.), dose: 16.0 mg/kg/injection, schedule: Q07DX005 (ip), vehicle: saline) was 256 % of control, the T/C (endpoint: median tumor weight (est.), dose: 32.0 mg/kg/injection, schedule: Q07DX005 (ip), vehicle: saline) was 256 % of control and the T/C (endpoint: median tumor weight (est.), dose: 64.0 mg/kg/injection, schedule: Q07DX005 (ip), vehicle: Klucel (hydroxypropylcellulose) (HPC)) was 74 % of control. The T/C (endpoint: median tumor weight (est.), dose: 64.0 mg/kg/injection, schedule: Q07DX005 (ip), vehicle: saline) was 249 % of control, the T/C (endpoint: median tumor weight (est.), dose: 128.0 mg/kg/injection, schedule: Q07DX005 (ip), vehicle: Klucel (hydroxypropylcellulose) (HPC)) was 88 % of control and the T/C (endpoint: median tumor weight (est.), dose: 128.0 mg/kg/injection, schedule: Q07DX005 (ip), vehicle: saline) was 488 % of control. The T/C (endpoint: median tumor weight (est.), dose: 256.0 mg/kg/injection, schedule: Q07DX005 (ip), vehicle: Klucel (hydroxypropylcellulose) (HPC)) was 121 % of control and the T/C (endpoint: median tumor weight (est.), dose: 256.0 mg/kg/injection, schedule: Q07DX005 (ip), vehicle: saline) was 108 % of control.
`Cc1ccc(S(=O)(=O)N/N=C/C(=O)O)cc1` was tested, and the T/C (endpoint: median tumor weight (est.), dose: 12.5 mg/kg/injection, schedule: Q07DX005 (ip), vehicle: Klucel (hydroxypropylcellulose) (HPC)) was 60 % of control, the T/C (endpoint: median tumor weight (est.), dose: 12.5 mg/kg/injection, schedule: Q07DX005 (ip), vehicle: other) was 97 % of control and the T/C (endpoint: median tumor weight (est.), dose: 25.0 mg/kg/injection, schedule: Q07DX005 (ip), vehicle: Klucel (hydroxypropylcellulose) (HPC)) was 120 % of control. For the same compound, the T/C (endpoint: median tumor weight (est.), dose: 25.0 mg/kg/injection, schedule: Q07DX005 (ip), vehicle: other) was 70 % of control and 76 % of control, the T/C (endpoint: median tumor weight (est.), dose: 50.0 mg/kg/injection, schedule: Q07DX005 (ip), vehicle: Klucel (hydroxypropylcellulose) (HPC)) was 62 % of control and the T/C (endpoint: median tumor weight (est.), dose: 100.0 mg/kg/injection, schedule: Q07DX005 (ip), vehicle: Klucel (hydroxypropylcellulose) (HPC)) was 53 % of control.
With `OC1(CSc2ccccc2)CCCCC1` the T/C (endpoint: median tumor weight change, dose: 1000.0 mg/kg/injection, schedule: Q01DX001 (ip), vehicle: saline with Tween-80) was 13 % of control.
For `C#CC[N+]12CN3CN(CN(C3)C1)C2`, the T/C (endpoint: mean tumor weight, dose: 12.5 mg/kg/injection, schedule: Q07DX007 (ip), vehicle: saline) was 48 % of control, the T/C (endpoint: mean tumor weight, dose: 25.0 mg/kg/injection, schedule: Q07DX007 (ip), vehicle: saline) was 70 % of control and the T/C (endpoint: mean tumor weight, dose: 50.0 mg/kg/injection, schedule: Q07DX007 (ip), vehicle: saline) was 81 % of control. For the same compound, the T/C (endpoint: mean tumor weight, dose: 100.0 mg/kg/injection, schedule: Q07DX007 (ip), vehicle: saline) was 150 % of control and the T/C (endpoint: mean tumor weight, dose: 200.0 mg/kg/injection, schedule: Q07DX007 (ip), vehicle: saline) was 97 % of control.
For `Cc1c2c(ccc3ccccc32)c[n+]2ccccc12`, the T/C (endpoint: median tumor weight (est.), dose: 6.25 mg/kg/injection, schedule: Q07DX005 (ip), vehicle: saline) was 73 % of control and the T/C (endpoint: median tumor weight (est.), dose: 12.5 mg/kg/injection, schedule: Q07DX005 (ip), vehicle: saline) was 71 % of control.
For `CCCCC(=O)OCC(=O)[C@]1(O)Cc2c(O)c3c(c(O)c2[C@@H](OC2CC(NC(=O)C(F)(F)F)C(O)C(C)O2)C1)C(=O)c1c(OC)cccc1C3=O` (stereo partly specified), the T/C (endpoint: median tumor weight (est.), dose: 8.0 mg/kg/injection, schedule: Q07DX005 (ip), vehicle: distilled water + Tween-80) was 77 % of control, the T/C (endpoint: median tumor weight (est.), dose: 16.0 mg/kg/injection, schedule: Q07DX005 (ip), vehicle: distilled water + Tween-80) was 86 % of control and the T/C (endpoint: median tumor weight (est.), dose: 32.0 mg/kg/injection, schedule: Q07DX005 (ip), vehicle: distilled water + Tween-80) was 58 % of control. The T/C (endpoint: median tumor weight (est.), dose: 44.0 mg/kg/injection, schedule: Q07DX004 (ip), vehicle: clinical formulation) was 51 % of control, the T/C (endpoint: median tumor weight (est.), dose: 64.0 mg/kg/injection, schedule: Q07DX005 (ip), vehicle: distilled water + Tween-80) was 18 % of control and the T/C (endpoint: median tumor weight (est.), dose: 67.0 mg/kg/injection, schedule: Q07DX004 (ip), vehicle: clinical formulation) was 32 % of control. For the same compound, the T/C (endpoint: median tumor weight (est.), dose: 100.0 mg/kg/injection, schedule: Q07DX004 (ip), vehicle: clinical formulation) was 10 % of control, the T/C (endpoint: median tumor weight (est.), dose: 128.0 mg/kg/injection, schedule: Q07DX005 (ip), vehicle: distilled water + Tween-80) was 2 % of control and the T/C (endpoint: median tumor weight (est.), dose: 150.0 mg/kg/injection, schedule: Q07DX004 (ip), vehicle: clinical formulation) was 3 % of control. The T/C (endpoint: median tumor weight change, dose: 90.0 mg/kg/injection, schedule: Q01DX001 (ip), vehicle: clinical formulation) was 45 % of control.
`Cc1cc2c(C(C)C)c(O)c(O)c(C=O)c2c(O)c1-c1c(C)cc2c(C(C)C)c(O)c(O)c(C=O)c2c1O` was tested, and the T/C (endpoint: median tumor weight change, dose: 31.25 mg/kg/injection, schedule: Q01DX001 (ip), vehicle: saline with Tween-80) was 65 % of control.
With `C=C1C(C)C2C(Cc3ccccc3)NC(=O)C23C(OC(C)=O)C=CC(C)(O)C(=O)C(C)C/C=C/C3C1O` (stereo unspecified) the T/C [1] was 64 % of control, the T/C [2] was 61 % of control and the T/C [3] was 94 % of control. For the same compound, the T/C (endpoint: median tumor weight (est.), dose: 5.0 mg/kg/injection, schedule: Q07DX005 (ip), vehicle: saline) was 59 % of control and the T/C (endpoint: median tumor weight (est.), dose: 10.0 mg/kg/injection, schedule: Q07DX005 (ip), vehicle: saline) was 46 % of control.
In the case of `CC[C@H]1CN2CCc3cc(OC)c(OC)cc3[C@@H]2C[C@@H]1C[C@H]1NCCc2cc(OC)c(OC)cc21`, the T/C (endpoint: mean tumor weight, dose: 0.88 mg/kg/injection, schedule: Q07DX006 (ip), vehicle: saline) is reported as 46 % of control, the T/C (endpoint: mean tumor weight, dose: 1.75 mg/kg/injection, schedule: Q07DX005 (ip), vehicle: saline) is reported as 163 % of control and the T/C (endpoint: mean tumor weight, dose: 1.75 mg/kg/injection, schedule: Q07DX006 (ip), vehicle: saline) is reported as 65 % of control. The T/C (endpoint: mean tumor weight, dose: 3.5 mg/kg/injection, schedule: Q07DX005 (ip), vehicle: saline) was 258 % of control, the T/C (endpoint: mean tumor weight, dose: 3.5 mg/kg/injection, schedule: Q07DX006 (ip), vehicle: saline) was 42 % of control and the T/C (endpoint: mean tumor weight, dose: 7.0 mg/kg/injection, schedule: Q07DX005 (ip), vehicle: saline) was 153 % of control. For the same compound, the T/C (endpoint: mean tumor weight, dose: 7.0 mg/kg/injection, schedule: Q07DX006 (ip), vehicle: saline) was 73 % of control, the T/C (endpoint: mean tumor weight, dose: 14.0 mg/kg/injection, schedule: Q07DX005 (ip), vehicle: saline) was 156 % of control and the T/C (endpoint: mean tumor weight, dose: 14.0 mg/kg/injection, schedule: Q07DX006 (ip), vehicle: saline) was 96 % of control. The T/C (endpoint: median tumor weight (est.), dose: 1.75 mg/kg/injection, schedule: Q07DX005 (ip), vehicle: saline) was 214 % of control, the T/C (endpoint: median tumor weight (est.), dose: 3.5 mg/kg/injection, schedule: Q07DX005 (ip), vehicle: saline) was 166 % of control and the T/C (endpoint: median tumor weight (est.), dose: 7.0 mg/kg/injection, schedule: Q07DX005 (ip), vehicle: saline) was 92 % of control. The T/C (endpoint: median tumor weight (est.), dose: 28.0 mg/kg/injection, schedule: Q07DX005 (ip), vehicle: saline) was 86 % of control.
`CN1CCN(CN2C(=O)C3C4C=CC(C3C2=O)C2C3C(=O)N(CN5CCN(C)CC5)C(=O)C3C42)CC1` (stereo unspecified) was tested, and the T/C (endpoint: median tumor weight change, dose: 21.6 mg/kg/injection, schedule: Q01DX005 (ip), vehicle: water) was 98 % of control, the T/C (endpoint: median tumor weight change, dose: 24.8 mg/kg/injection, schedule: Q01DX005 (ip), vehicle: water) was 84 % of control and the T/C (endpoint: median tumor weight change, dose: 36.0 mg/kg/injection, schedule: Q01DX005 (ip), vehicle: water) was 70 % of control. For the same compound, the T/C (endpoint: median tumor weight change, dose: 41.4 mg/kg/injection, schedule: Q01DX005 (ip), vehicle: water) was 25 % of control, the T/C (endpoint: median tumor weight change, dose: 60.0 mg/kg/injection, schedule: Q01DX005 (ip), vehicle: water) was 54 % of control and the T/C (endpoint: median tumor weight change, dose: 69.0 mg/kg/injection, schedule: Q01DX005 (ip), vehicle: water) was 23 % of control. The T/C (endpoint: median tumor weight change, dose: 100.0 mg/kg/injection, schedule: Q01DX005 (ip), vehicle: water) was 21 % of control, the T/C (endpoint: median tumor weight change, dose: 108.0 mg/kg/injection, schedule: Q01DX001 (ip), vehicle: water) was 33 % of control and the T/C (endpoint: median tumor weight change, dose: 123.9 mg/kg/injection, schedule: Q01DX001 (ip), vehicle: water) was 33 % of control.
`c1ccc([P+](c2ccccc2)(c2ccccc2)c2ccccc2)cc1` was tested, and the T/C (endpoint: median tumor weight (est.), dose: 0.31 mg/kg/injection, schedule: Q07DX004 (ip), vehicle: saline) was 218 % of control and 86 % of control, the T/C (endpoint: median tumor weight (est.), dose: 0.31 mg/kg/injection, schedule: Q07DX005 (ip), vehicle: saline) was 98 % of control and the T/C (endpoint: median tumor weight (est.), dose: 0.62 mg/kg/injection, schedule: Q04DX005 (ip), vehicle: saline) was 50 % of control and 67 % of control. For the same compound, the T/C [1] was 121 % of control, the T/C (endpoint: median tumor weight (est.), dose: 1.25 mg/kg/injection, schedule: Q04DX005 (ip), vehicle: saline) was 100 % of control and the T/C (endpoint: median tumor weight (est.), dose: 1.25 mg/kg/injection, schedule: Q07DX004 (ip), vehicle: saline) was 124 % of control. For the same compound, the T/C [2] was 62 % of control, the T/C (endpoint: median tumor weight (est.), dose: 2.5 mg/kg/injection, schedule: Q04DX005 (ip), vehicle: saline) was 73 % of control and 76 % of control and the T/C [3] was 63 % of control.
With `COc1cc2cc[n+](C)c(Cc3ccccc3)c2cc1OC` the T/C (endpoint: median tumor weight (est.), dose: 6.25 mg/kg/injection, schedule: Q07DX005 (ip), vehicle: saline with Tween-80) was 123 % of control, the T/C (endpoint: median tumor weight (est.), dose: 12.5 mg/kg/injection, schedule: Q07DX005 (ip), vehicle: saline with Tween-80) was 83 % of control and the T/C (endpoint: median tumor weight (est.), dose: 25.0 mg/kg/injection, schedule: Q07DX005 (ip), vehicle: saline with Tween-80) was 94 % of control. For the same compound, the T/C (endpoint: median tumor weight (est.), dose: 50.0 mg/kg/injection, schedule: Q07DX005 (ip), vehicle: saline with Tween-80) was 75 % of control.
